Laboratory results: patent US20240246941A1, “SUBSTITUTED 4-(3-AMINOPROP-1-YL)AMINOQUINOLINE ANALOGS AS MODULATORS OF MELANOMA-ASSOCIATED ANTIGEN 11 UBIQUITIN LIGASE” (ST. JUDE CHILDREN'S RESEARCH HOSPITAL, INC., priority 2020, published 2024)
Like-named read-outs stand apart in the source and are kept apart here.

Target: interaction between GST-MAGEA11 MHD and FAM-PCF11_4 peptide (MAGE-A11:PCF11) (Homo sapiens (Human), UniProt P43364)
Assay: TR-FRET dose response competition assay for disruption of MAGE-A11:PCF11 binding
Excerpt: TR-FRET Assays and High-throughput Screen. Terbium-anti-GST antibody, 1 M Tris pH 7.5 1 M MgCl2 and 1 M DTT were purchased from Invitrogen (Carlsbad, CA), BSA was purchased from Sigma (St. Louis, MO). Dimethyl sulfoxide (DMSO) was purchased from Fisher Scientific (Pittsburgh, PA). Black 384-well low volume plates and 384-well polypropylene compound plates were purchased from Corning Incorporated (Tewksbury, MA). The St. Jude FDA drug and Bioactive library (11,293 chemicals), Drug-like library (10,073 chemicals) and Lead-like library (10,041 chemicals) were custom assembled and purchased from commercial sources including Sigma, Microsource (Gaylordsville, CT), selleckchem (Houston, TX), ChemDiv (San Diego, CA), ChemBridge (San Diego, CA), Enamine (Monmouth Jct., NJ), and Life Chemicals (Niagara-on-the-Lake, ON, Canada). They were arrayed (10 mM in DMSO) in 384-well polypropylene compound plates with columns 1, 2, 13 and 14 empty which were reserved for controls.
The TR-FRET assay buffer with a formula of 50 mM Tris pH 7.5, 20 mM MgCl2, 0.1 mg/ml BSA and 1 mM DTT was freshly prepared before each experiment. All TR-FRET assays were performed in black 384-well plates with 20 μl/well assay volume in the TR-FRET assay buffer at room temperature (approximately 25° C.). All peptides or compounds were solubilized in DMSO. To test the competitive activity of peptides or compounds against the interaction between GST-MAGEA11 MHD and FAM-PCF11_4 peptide, 10 μl/well peptide or compound at specified concentration was dispensed into a black 384-well low volume plate, followed by 5 μl/well FAM-PCF11_4 (800 nM), 5 μl/well Tb-anti-GST (20 nM) and GST-MAGEA11 MHD (20 nM). The assay components in each well was then mixed by shaking the plate on an IKA MTS 2/4 digital microtiter plate shaker (IKA Works; Wilmington, NC, USA) at 900 RPM for 1 minute. The plate was further centrifuged in an Eppendorf 5810 centrifuge with an A-4-62 swing-bucket rotor (Eppendorf AG, Hamburg, Germany) at 201 g (1000 rpm) for 30 seconds. The plate was then incubated for 90 min with a lid to avoid light exposure to the assay components. After incubation, the fluorescent emission signals at 520 nm and 490 nm channels of individual wells were measured with a PHERAstar FS plate reader (BMG Labtech; Durham, NC, USA) by using a 340 nm excitation filter, 100 μs delay time, and 200 μs integration time. The TR-FRET fluorescence emission ratio (TR-FRET signal) for each well was presented as 10 000×520 nm/490 nm, which was used directly for curve fitting, or further converted to % Inhibition based on the respective positive and negative controls. The graphic software GraphPad Prism 4.81 (GraphPad Software; La Jolla, CA, USA) was used to generate curves and derive IC50 values of tested peptides or compounds, if applicable.
TR-FRET inhibitory activity characterization of a panel of PCF11 peptides against the interaction between GST-MAGEA11 MHD and FAM-PCF11_4 was performed as follows. In a 20 μl/well assay volume, dilutions of PCF11_1 to PCF11_8 peptides (concentrations ranged from 3.1 nM to 100 μM for peptides PCF11_4, PCF11_5, PCF11_6 and PCF11_8 in a 1-to-2 dilution pattern for 16 concentration levels, and ranged from 48.9 nM to 100 μM for peptides of PCF11_1, PCF11_2, PCF11_3 and PCF11_7 in a 1-to-2 dilution pattern for 12 concentration levels), 200 nM FAM-PCF11_4, 5 nM Tb-anti-GST and 5 nM GST-MAGEA11 were mixed together and incubated for 90 min before the TR-FRET signal for each well was measured. The final DMSO concentration was 1.1% (v/v). […] The signal of each peptide-treated well (Signalpeptide) was normalized to the positive and negative controls to derive % inhibition of the peptide at a specific concentration with equation 1. Where applicable, the % Inhibition data were fit into a Sigmoidal dose response equation to derive IC50 values.
TR-FRET screen for identifying MAGEA11 small molecule inhibitors was performed as follows.

[1] = Dose response TR-FRET screening of nine scaffold groups against MAGE-A11:PCF11, read-out: consensus IC50
[2] = Table 8, representative compounds, read-out: TR-FRET IC50

interaction between GST-MAGEA11 MHD and FAM-PCF11_4 peptide (MAGE-A11:PCF11), sequence (P43364 218-429): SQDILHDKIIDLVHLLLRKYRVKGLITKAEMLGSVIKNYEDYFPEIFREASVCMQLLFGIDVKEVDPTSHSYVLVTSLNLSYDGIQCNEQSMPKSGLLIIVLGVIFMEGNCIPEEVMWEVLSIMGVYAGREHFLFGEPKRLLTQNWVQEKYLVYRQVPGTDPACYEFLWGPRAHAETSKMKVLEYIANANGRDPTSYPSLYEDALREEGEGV

CCCS(=O)(=O)N1CCN(Cc2ccc3c(c2)c2ccccc2n3CC)CC1 [SJ000167951-1]
IC50 [1]: 19.2 µM

CCn1c2ccccc2c2cc(CN3CCN(S(C)(=O)=O)CC3)ccc21 [SJ000168261-1]
IC50 [1]: 69.9 µM

CCn1c2ccccc2c2cc(CN3CCN(S(=O)(=O)CC)CC3)ccc21 [SJ000168321-1]
IC50 [1]: 69.9 µM

O=S(=O)(c1ccc(Cl)cc1)c1nc(-c2ccccc2Br)oc1N1CCOCC1 [SJ000184129-1]
IC50 [1]: 69.9 µM

Cc1ccc(S(=O)(=O)c2nc(-c3ccccc3Br)oc2N2CCOCC2)cc1 [SJ000185415-1]
IC50 [1]: 69.9 µM

Cc1cc(C)nc(Nc2nc(N)c3ccccc3n2)n1 [SJ000189299-1]
IC50 [1]: 69.9 µM

Cc1ccccc1Nc1nc(N)c2ccccc2n1 [SJ000192476-1]
IC50 [1]: 69.9 µM

COc1ccccc1Nc1nc(N)c2ccccc2n1 [SJ000192505-1]
IC50 [1]: 69.9 µM

Nc1nc(Nc2ccccc2O)nc2ccccc12 [SJ000192933-1]
IC50 [1]: 69.9 µM

Cc1ccc(C)c(Nc2nc(N)c3ccccc3n2)c1 [SJ000192944-1]
IC50 [1]: 69.9 µM

CCOc1ccc(-c2nc(S(=O)(=O)c3ccccc3)c(N3CCOCC3)o2)cc1 [SJ000198209-1]
IC50 [1]: 69.9 µM

COc1ccc(Cl)cc1Nc1nc(N)c2ccccc2n1 [SJ000200999-1]
IC50 [1]: 69.9 µM

Cc1ccc(Nc2nc(N)c3ccccc3n2)cc1Cl [SJ000201287-1]
IC50 [1]: 69.9 µM

Nc1nc(Nc2ccc(Cl)c(Cl)c2)nc2ccccc12 [SJ000201376-1]
IC50 [1]: 69.9 µM

COc1ccc(C)cc1Nc1nc(N)c2ccccc2n1 [SJ000201566-1]
IC50 [1]: 69.9 µM

COc1ccc(OC)c(Nc2nc(N)c3ccccc3n2)c1 [SJ000202008-1]
IC50 [1]: 69.9 µM

Cc1ccc(Nc2nc(N)c3ccccc3n2)cc1C [SJ000202381-1]
IC50 [1]: 69.9 µM

CCN1CCN(c2nc(N)c3ccccc3n2)CC1 [SJ000202571-1]
IC50 [1]: 69.9 µM

CC(C)c1ccc(-c2nc3c(=O)n(C)c(=O)n(C)c3[nH]2)cc1 [SJ000203904-1]
IC50 [1]: 69.9 µM

CCCOc1ccc(-c2nc3c(=O)n(C)c(=O)n(C)c3[nH]2)cc1 [SJ000205042-1]
IC50 [1]: 69.9 µM

O=S(=O)(c1ccccc1)c1nc(-c2ccc(Cl)cc2)oc1N1CCOCC1 [SJ000230691-1]
IC50 [1]: 69.9 µM

O=S(=O)(c1ccc(Cl)cc1)c1nc(-c2ccc(Cl)cc2)oc1N1CCOCC1 [SJ000230692-1]
IC50 [1]: 69.9 µM

Cc1ccc(S(=O)(=O)c2nc(-c3ccc(Cl)cc3)oc2N2CCOCC2)cc1 [SJ000230693-1]
IC50 [1]: 69.9 µM

Cc1ccc(S(=O)(=O)c2nc(-c3ccc(F)cc3)oc2N2CCOCC2)cc1 [SJ000230854-1]
IC50 [1]: 11.7 µM

Cc1ccc(S(=O)(=O)c2nc(-c3ccc(Br)cc3)oc2N2CCOCC2)cc1 [SJ000230855-1]
IC50 [1]: 69.9 µM

Cc1ccc(S(=O)(=O)c2nc(-c3ccccc3Cl)oc2N2CCOCC2)cc1 [SJ000230856-1]
IC50 [1]: 4.34 µM

O=C1C(Cl)=C(N2CCOCC2)C(=O)c2ccccc21 [SJ000242799-1]
IC50 [1]: 69.9 µM

O=S(=O)(c1ccccc1)c1nc(-c2ccc(Br)cc2)oc1N1CCOCC1 [SJ000244320-1]
IC50 [1]: 8.63 µM

CC(NC1=C(Cl)C(=O)c2ccccc2C1=O)C(=O)O (centres unmarked) [SJ000244608-1]
IC50 [1]: 69.9 µM

CC(C)C(NC1=C(Cl)C(=O)c2ccccc2C1=O)C(=O)O (centres unmarked) [SJ000244609-2]
IC50 [1]: 587 µM

COc1ccc(-c2nc(S(=O)(=O)c3ccc(C)cc3)c(N3CCOCC3)o2)cc1 [SJ000245271-1]
IC50 [1]: 69.9 µM

COc1ccc(OC)c2c(O)c(CN3CCCCC3C)c(C)nc12 (centres unmarked) [SJ000280708]
IC50 [2]: > 69.9 µM

COc1ccc(OC)c2c(O)cc(C)nc12 [SJ000284975]
IC50 [2]: > 69.9 µM

CS(=O)(=O)c1ccc(C2=C(c3ccccc3)C(=O)OC2)cc1 [SJ000285362-5]
IC50 [1]: 67.6 µM

CC[C@@]1(O)C(=O)OCc2c1cc1n(c2=O)Cc2cc3ccccc3nc2-1 [SJ000285410]
IC50 [2]: > 55.2 µM

Nc1c2ccccc2nc2ccccc12 [SJ000285450]
IC50 [2]: > 75.5 µM

COc1cc(NC(C)CCCN)c2ncccc2c1 (centres unmarked) [SJ000285544]
IC50 [2]: 19 µM

COc1cc2nc(N(C)CCCNC(=O)C3CCCO3)nc(N)c2cc1OC (centres unmarked) [SJ000286094-9]
IC50 [1]: 36.2 µM
